Numbers after ± are expanded uncertainties.
Conditions: 298.15 K; 100 kPa; Liquid; Frequency=3 MHz; Single path-length method

| Compound | speed of sound |
| --- | --- |
| CC[S+](CC)CC.O=S(=O)([N-]S(=O)(=O)C(F)(F)F)C(F)(F)F [triethylsulfonium bis((trifluoromethyl)sulfonyl)imide] | 1242.5 ± 6.1 m/s |
| CCCO [propan-1-ol] | 1206.5 ± 6 m/s |
| CCCC[N+]1(C)CCCC1.O=S(=O)([N-]S(=O)(=O)C(F)(F)F)C(F)(F)F | 1269.4 ± 6.3 m/s |

Same assay, conditions: 298.15 K; 100 kPa; Liquid; Vibrating tube method

| Compound | mass density |
| --- | --- |
| O=S(=O)([N-]S(=O)(=O)C(F)(F)F)C(F)(F)F.On1cc[n+](O)c1 [1,3-dihydroxyimidazolium bis(trifluoromethylsulfonyl)imide] | 1740.44 ± 4.3 kg/m3 |
| CC[S+](CC)CC.O=S(=O)([N-]S(=O)(=O)C(F)(F)F)C(F)(F)F [triethylsulfonium bis((trifluoromethyl)sulfonyl)imide] | 1459.98 ± 3 kg/m3 |
| CCCO [propan-1-ol] | 799.65 ± 1.6 kg/m3 |
| CCCC[N+]1(C)CCCC1.O=S(=O)([N-]S(=O)(=O)C(F)(F)F)C(F)(F)F | 1394.32 ± 3.2 kg/m3 |

Same assay, conditions: 303.15 K; 100 kPa; Liquid; Capillary tube (Ostwald / Ubbelohde) method

| Compound | viscosity |
| --- | --- |
| O=S(=O)([N-]S(=O)(=O)C(F)(F)F)C(F)(F)F.On1cc[n+](O)c1 [1,3-dihydroxyimidazolium bis(trifluoromethylsulfonyl)imide] | 127.52 ± 10 mPa·s |
| C=CCn1cc[n+](C)c1.O=S(=O)([N-]S(=O)(=O)C(F)(F)F)C(F)(F)F | 28.51 ± 2.3 mPa·s |
| CC[S+](CC)CC.O=S(=O)([N-]S(=O)(=O)C(F)(F)F)C(F)(F)F [triethylsulfonium bis((trifluoromethyl)sulfonyl)imide] | 26.92 ± 2.2 mPa·s |
| CCCO [propan-1-ol] | 1.688 ± 0.14 mPa·s |
| CCCC[N+]1(C)CCCC1.O=S(=O)([N-]S(=O)(=O)C(F)(F)F)C(F)(F)F | 61.31 ± 4.9 mPa·s |

Same assay, conditions: 303.15 K; 100 kPa; Liquid; Frequency=3 MHz; Single path-length method

| Compound | speed of sound |
| --- | --- |
| O=S(=O)([N-]S(=O)(=O)C(F)(F)F)C(F)(F)F.On1cc[n+](O)c1 [1,3-dihydroxyimidazolium bis(trifluoromethylsulfonyl)imide] | 1185.2 ± 6.3 m/s |
| C=CCn1cc[n+](C)c1.O=S(=O)([N-]S(=O)(=O)C(F)(F)F)C(F)(F)F | 1228.9 ± 6.2 m/s |
| CC[S+](CC)CC.O=S(=O)([N-]S(=O)(=O)C(F)(F)F)C(F)(F)F [triethylsulfonium bis((trifluoromethyl)sulfonyl)imide] | 1232.4 ± 6.1 m/s |
| CCCO [propan-1-ol] | 1189.4 ± 6 m/s |
| CCCC[N+]1(C)CCCC1.O=S(=O)([N-]S(=O)(=O)C(F)(F)F)C(F)(F)F | 1258.2 ± 6.3 m/s |

Same assay, conditions: 303.15 K; 100 kPa; Liquid; Vibrating tube method

| Compound | mass density |
| --- | --- |
| O=S(=O)([N-]S(=O)(=O)C(F)(F)F)C(F)(F)F.On1cc[n+](O)c1 [1,3-dihydroxyimidazolium bis(trifluoromethylsulfonyl)imide] | 1734.52 ± 4.3 kg/m3 |
| C=CCn1cc[n+](C)c1.O=S(=O)([N-]S(=O)(=O)C(F)(F)F)C(F)(F)F | 1494.52 ± 3.2 kg/m3 |
| CC[S+](CC)CC.O=S(=O)([N-]S(=O)(=O)C(F)(F)F)C(F)(F)F [triethylsulfonium bis((trifluoromethyl)sulfonyl)imide] | 1455.14 ± 3 kg/m3 |
| CCCO [propan-1-ol] | 795.61 ± 1.6 kg/m3 |
| CCCC[N+]1(C)CCCC1.O=S(=O)([N-]S(=O)(=O)C(F)(F)F)C(F)(F)F | 1389.87 ± 3.2 kg/m3 |

Same assay, conditions: 308.15 K; 100 kPa; Liquid; Capillary tube (Ostwald / Ubbelohde) method

| Compound | viscosity |
| --- | --- |
| O=S(=O)([N-]S(=O)(=O)C(F)(F)F)C(F)(F)F.On1cc[n+](O)c1 [1,3-dihydroxyimidazolium bis(trifluoromethylsulfonyl)imide] | 96.92 ± 7.9 mPa·s |
| C=CCn1cc[n+](C)c1.O=S(=O)([N-]S(=O)(=O)C(F)(F)F)C(F)(F)F | 23.96 ± 1.9 mPa·s |
| CC[S+](CC)CC.O=S(=O)([N-]S(=O)(=O)C(F)(F)F)C(F)(F)F [triethylsulfonium bis((trifluoromethyl)sulfonyl)imide] | 22.64 ± 1.8 mPa·s |
| CCCO [propan-1-ol] | 1.506 ± 0.12 mPa·s |
| CCCC[N+]1(C)CCCC1.O=S(=O)([N-]S(=O)(=O)C(F)(F)F)C(F)(F)F | 49.84 ± 4 mPa·s |

Same assay, conditions: 308.15 K; 100 kPa; Liquid; Frequency=3 MHz; Single path-length method

| Compound | speed of sound |
| --- | --- |
| O=S(=O)([N-]S(=O)(=O)C(F)(F)F)C(F)(F)F.On1cc[n+](O)c1 [1,3-dihydroxyimidazolium bis(trifluoromethylsulfonyl)imide] | 1174.1 ± 6.3 m/s |
| C=CCn1cc[n+](C)c1.O=S(=O)([N-]S(=O)(=O)C(F)(F)F)C(F)(F)F | 1217.8 ± 6.2 m/s |
| CC[S+](CC)CC.O=S(=O)([N-]S(=O)(=O)C(F)(F)F)C(F)(F)F [triethylsulfonium bis((trifluoromethyl)sulfonyl)imide] | 1222.4 ± 6.1 m/s |
| CCCO [propan-1-ol] | 1172.4 ± 6 m/s |
| CCCC[N+]1(C)CCCC1.O=S(=O)([N-]S(=O)(=O)C(F)(F)F)C(F)(F)F | 1247.1 ± 6.3 m/s |

Same assay, conditions: 308.15 K; 100 kPa; Liquid; Vibrating tube method

| Compound | mass density |
| --- | --- |
| O=S(=O)([N-]S(=O)(=O)C(F)(F)F)C(F)(F)F.On1cc[n+](O)c1 [1,3-dihydroxyimidazolium bis(trifluoromethylsulfonyl)imide] | 1728.64 ± 4.3 kg/m3 |
| C=CCn1cc[n+](C)c1.O=S(=O)([N-]S(=O)(=O)C(F)(F)F)C(F)(F)F | 1489.48 ± 3.2 kg/m3 |
| CC[S+](CC)CC.O=S(=O)([N-]S(=O)(=O)C(F)(F)F)C(F)(F)F [triethylsulfonium bis((trifluoromethyl)sulfonyl)imide] | 1450.33 ± 3 kg/m3 |
| CCCO [propan-1-ol] | 791.54 ± 1.6 kg/m3 |
| CCCC[N+]1(C)CCCC1.O=S(=O)([N-]S(=O)(=O)C(F)(F)F)C(F)(F)F | 1385.44 ± 3.2 kg/m3 |

Same assay, conditions: 313.15 K; 100 kPa; Liquid; Capillary tube (Ostwald / Ubbelohde) method

| Compound | viscosity |
| --- | --- |
| O=S(=O)([N-]S(=O)(=O)C(F)(F)F)C(F)(F)F.On1cc[n+](O)c1 [1,3-dihydroxyimidazolium bis(trifluoromethylsulfonyl)imide] | 75.56 ± 6.1 mPa·s |
| C=CCn1cc[n+](C)c1.O=S(=O)([N-]S(=O)(=O)C(F)(F)F)C(F)(F)F | 20.41 ± 1.6 mPa·s |
| CC[S+](CC)CC.O=S(=O)([N-]S(=O)(=O)C(F)(F)F)C(F)(F)F [triethylsulfonium bis((trifluoromethyl)sulfonyl)imide] | 19.24 ± 1.5 mPa·s |
| CCCO [propan-1-ol] | 1.348 ± 0.11 mPa·s |
| CCCC[N+]1(C)CCCC1.O=S(=O)([N-]S(=O)(=O)C(F)(F)F)C(F)(F)F | 41.08 ± 3.3 mPa·s |

Same assay, conditions: 313.15 K; 100 kPa; Liquid; Frequency=3 MHz; Single path-length method

| Compound | speed of sound |
| --- | --- |
| O=S(=O)([N-]S(=O)(=O)C(F)(F)F)C(F)(F)F.On1cc[n+](O)c1 [1,3-dihydroxyimidazolium bis(trifluoromethylsulfonyl)imide] | 1163.1 ± 6.3 m/s |
| C=CCn1cc[n+](C)c1.O=S(=O)([N-]S(=O)(=O)C(F)(F)F)C(F)(F)F | 1206.8 ± 6.2 m/s |
| CC[S+](CC)CC.O=S(=O)([N-]S(=O)(=O)C(F)(F)F)C(F)(F)F [triethylsulfonium bis((trifluoromethyl)sulfonyl)imide] | 1212.7 ± 6.1 m/s |
| CCCO [propan-1-ol] | 1155.5 ± 6 m/s |
| CCCC[N+]1(C)CCCC1.O=S(=O)([N-]S(=O)(=O)C(F)(F)F)C(F)(F)F | 1236.1 ± 6.3 m/s |

Same assay, conditions: 313.15 K; 100 kPa; Liquid; Vibrating tube method

| Compound | mass density |
| --- | --- |
| O=S(=O)([N-]S(=O)(=O)C(F)(F)F)C(F)(F)F.On1cc[n+](O)c1 [1,3-dihydroxyimidazolium bis(trifluoromethylsulfonyl)imide] | 1722.79 ± 4.2 kg/m3 |
| C=CCn1cc[n+](C)c1.O=S(=O)([N-]S(=O)(=O)C(F)(F)F)C(F)(F)F | 1484.45 ± 3.2 kg/m3 |
| CC[S+](CC)CC.O=S(=O)([N-]S(=O)(=O)C(F)(F)F)C(F)(F)F [triethylsulfonium bis((trifluoromethyl)sulfonyl)imide] | 1445.52 ± 3 kg/m3 |
| CCCO [propan-1-ol] | 787.43 ± 1.6 kg/m3 |
| CCCC[N+]1(C)CCCC1.O=S(=O)([N-]S(=O)(=O)C(F)(F)F)C(F)(F)F | 1381.05 ± 3.2 kg/m3 |

Same assay, conditions: 318.15 K; 100 kPa; Liquid; Capillary tube (Ostwald / Ubbelohde) method

| Compound | viscosity |
| --- | --- |
| O=S(=O)([N-]S(=O)(=O)C(F)(F)F)C(F)(F)F.On1cc[n+](O)c1 [1,3-dihydroxyimidazolium bis(trifluoromethylsulfonyl)imide] | 59.8 ± 4.8 mPa·s |
| C=CCn1cc[n+](C)c1.O=S(=O)([N-]S(=O)(=O)C(F)(F)F)C(F)(F)F | 17.51 ± 1.4 mPa·s |
| CC[S+](CC)CC.O=S(=O)([N-]S(=O)(=O)C(F)(F)F)C(F)(F)F [triethylsulfonium bis((trifluoromethyl)sulfonyl)imide] | 16.53 ± 1.3 mPa·s |
| CCCO [propan-1-ol] | 1.211 ± 0.097 mPa·s |
| CCCC[N+]1(C)CCCC1.O=S(=O)([N-]S(=O)(=O)C(F)(F)F)C(F)(F)F | 34.3 ± 2.8 mPa·s |

Same assay, conditions: 318.15 K; 100 kPa; Liquid; Frequency=3 MHz; Single path-length method

| Compound | speed of sound |
| --- | --- |
| O=S(=O)([N-]S(=O)(=O)C(F)(F)F)C(F)(F)F.On1cc[n+](O)c1 [1,3-dihydroxyimidazolium bis(trifluoromethylsulfonyl)imide] | 1152.3 ± 6.3 m/s |
| C=CCn1cc[n+](C)c1.O=S(=O)([N-]S(=O)(=O)C(F)(F)F)C(F)(F)F | 1196 ± 6.2 m/s |
| CC[S+](CC)CC.O=S(=O)([N-]S(=O)(=O)C(F)(F)F)C(F)(F)F [triethylsulfonium bis((trifluoromethyl)sulfonyl)imide] | 1203.1 ± 6.1 m/s |
| CCCO [propan-1-ol] | 1138.7 ± 6 m/s |
| CCCC[N+]1(C)CCCC1.O=S(=O)([N-]S(=O)(=O)C(F)(F)F)C(F)(F)F | 1225.3 ± 6.3 m/s |

Same assay, conditions: 318.15 K; 100 kPa; Liquid; Vibrating tube method

| Compound | mass density |
| --- | --- |
| O=S(=O)([N-]S(=O)(=O)C(F)(F)F)C(F)(F)F.On1cc[n+](O)c1 [1,3-dihydroxyimidazolium bis(trifluoromethylsulfonyl)imide] | 1716.97 ± 4.2 kg/m3 |
| C=CCn1cc[n+](C)c1.O=S(=O)([N-]S(=O)(=O)C(F)(F)F)C(F)(F)F | 1479.44 ± 3.2 kg/m3 |
| CC[S+](CC)CC.O=S(=O)([N-]S(=O)(=O)C(F)(F)F)C(F)(F)F [triethylsulfonium bis((trifluoromethyl)sulfonyl)imide] | 1440.74 ± 2.9 kg/m3 |
| CCCO [propan-1-ol] | 783.27 ± 1.6 kg/m3 |
| CCCC[N+]1(C)CCCC1.O=S(=O)([N-]S(=O)(=O)C(F)(F)F)C(F)(F)F | 1376.66 ± 3.2 kg/m3 |

Same assay, conditions: 323.15 K; 100 kPa; Liquid; Capillary tube (Ostwald / Ubbelohde) method

| Compound | viscosity |
| --- | --- |
| O=S(=O)([N-]S(=O)(=O)C(F)(F)F)C(F)(F)F.On1cc[n+](O)c1 [1,3-dihydroxyimidazolium bis(trifluoromethylsulfonyl)imide] | 48.29 ± 3.9 mPa·s |
| C=CCn1cc[n+](C)c1.O=S(=O)([N-]S(=O)(=O)C(F)(F)F)C(F)(F)F | 15.19 ± 1.2 mPa·s |
| CC[S+](CC)CC.O=S(=O)([N-]S(=O)(=O)C(F)(F)F)C(F)(F)F [triethylsulfonium bis((trifluoromethyl)sulfonyl)imide] | 14.31 ± 1.1 mPa·s |
| CCCO [propan-1-ol] | 1.09 ± 0.087 mPa·s |

From the NIST ThermoML archive (doi:10.1021/acs.jced.8b00537)
